Experimental data as given in patent publication US6399654B1, “Biflavanoids and derivatives thereof as antiviral agents” (priority 1995, dated 2002).
Where a name gives a salt, the structure may show the parent alone. Read-outs that look alike come from different tables or passages of the source.

How the values were obtained:
[1] = target: T1, HIV-1 RT (Human immunodeficiency virus type 1 group M subtype B, UniProt P03366); assay: Anti-HIV-1 RT assay (recombinant enzyme); format: biochemical; details: for inhibition at 200 µg/mL: read-out: Anti-HIV-1 RT % Inhibition at 200 μg/ml
T1 construct: made in house; host or cells: Escherichia coli

[2] = test system: Hepatitis B Virus (HBV); assay: Inhibition of HBV replication in 2.2.15 cells, extracellular (virion) HBV DNA; details: for fold less active/potent than robustaflavone against HBV: in vitro assay against HBV; for SI (CC50/EC90), HBV Virion: selective index;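 as to all read-outs here: extracellular virion HBV DNA in culture medium measured by slot blot hybridization with a 32P-labeled HBV probe, quantified against HBV DNA standards, after 9 days of daily dosing, compared with day 0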
[3] = test system: Hepatitis B Virus (HBV); assay: HBV replication intermediates (RI, intracellular HBV DNA) in 2.2.15 cells; format: cell-based
Description: Test compounds were added daily for a nine continuous day period; the culture medium was collected and stored for analysis of extracellular (virion) HBV DNA after 0, 3, 6, and 9 days of treatment. The treated cells were lysed 24 hours following day 9 of treatment for the analysis of intracellular HBV genomic forms. The overall levels of HBV DNA (both extracellular and intracellular DNA) and the relative rate of HBV replication (intracellular DNA) were analyzed quantitatively. The analysis was performed using blot hybridization techniques and [^32P]-labeled HBV-specific probes. The HBV DNA levels were measured by comparison to known amounts of HBV DNA standards applied to every nitrocellulose membrane (gel or slot blot). An AMBIS beta scanner, which measures the radioactive decay of the hybridized probes directly from the nitrocellulose membranes, was used for the quantitative analysis. Standard curves, generated by multiple analyses, were used to correlate CPM measurements made by the beta scanner with relative levels of target HBV DNA. The levels of HBV virion DNA released into the culture medium were analyzed by a slot blot hybridization procedure. HBV DNA levels were then compared to those at day 0 to determine the effect of the test compound. A known positive drug was evaluated in parallel with test compounds in each test.

[4] = test system: HCMV; assay: HCMV CPE inhibition in HFF cells; details: HFF Cells
[5] = test system: Hepatitis B Virus (HBV); assay: HBV proteins and nucleic acids in 2.2.15 cells; format: cell-based; details: Day 9, 2.2.15 cells; robustaflavone @10 μM
Description: Values of HBV proteins were determined by semi-quantitative EIA performed as previously described.^83 For the EIA analyses, test samples-were diluted (2- to 10-fold) so that the assay values produced were within the linear dynamic range of the EIA assays. Standard curves using serial dilutions of positive assay controls were included in each set of EIA analyses. HBV surface antigen ([…]), preSI protein, and HBc antigen ([…]) are released as extracellular products and were therefore analyzed in culture medium obtained 24 h following the last treatment dose of oligonucleotides or 2′, 3′-ddc. HBV core antigen (HBcAg) is an intracellular viral protein and was assayed in cell extracts produced by Triton-X-100 lysis.^83
Cultures for HBV RNA were maintained on 6-well plates, cultures for HBV virion DNA analyses were maintained on either 96- or 24-well plates, and cultures for all other HBV parameters were maintained on 24-well plates.
The concentrations of antiviral agents used in these studies approximates the EC50 values of the individual agents against intracellular HBV DNA replication intermediates (HBV RI). Cultures were treated with the indicated agents for 9 days using standard procedures. Values reported are the levels of the indicated HBV markers at the end of the treatment period (“DAY 9”) expressed as a percentage (±standard deviation (S.D.) of the average levels in the control cultures at the beginning of the treatment period (“DAY 0”). The method of expression permits an analysis of the variation of the HBV markers in the untreated (control) cultures over the course of the treatment period. HBV nucleic acid levels were measured by standard blot hydridization (dot, Southern, or Northern). HBV protein levels were measured by standard semi-quantitative EIA methods. Cultures for HBV RNA were maintained in 6-well culture plates. The levels of each of two major classes of HBV RNA transcripts are listed separately. Cultures for all other HBV markers were maintained in 24-well culture plates. For each treatment, a total of 4 separate cultures were used for the analysis of each HBV marker at both DAY 0 and DAY 9.
Determination of Mechanism of Action. Measurements of intracellular and extracellular HBV DNA, 3.6 kb and 2.1 kb mRNA fragments, and HBsAg, HBeAg and HBcAg protein markers were conducted as previously described (93).

[6] = read-out: EC50 (50% effective dose), HBV Virion, 2.2.15 cells, extracellular (virion) HBV DNA, 9 days treatment
[7] = read-out: EC90 (90% effective dose), HBV Virion, 2.2.15 cells, extracellular (virion) HBV DNA, 9 days treatment
[8] = values in parentheses or in words
[9] = HIV-1 RT IC50 (50% inhibition dose)
[10] = Anti-HIV-1 RT IC50, values in parentheses or in words

In the case of COc1ccc([C@@H]2Oc3cc(OC)cc(OC)c3C(=O)[C@H]2c2c(OC)cc(OC)c3c(=O)cc(-c4ccc(OC)c(OC)c4)oc23)cc1 [morelloflavone heptamethyl ether (8), morelloflavone heptamethyl ether], the “activity against HIV-1 RT (in words)” value [1] is reported as “inactive”.

With COc1ccc(-c2cc(=O)c3c(OC)c(-c4cc(-c5cc(=O)c6c(OC)cc(OC)cc6o5)ccc4OC)c(OC)cc3o2)cc1 [Robustaflavone hexamethyl ether, hexa-O-methylrobustaflavone] the “fold less active/potent than robustaflavone against HBV” value [2] was roughly 10 fold, the EC50 [2, 6] was 2.9 µM and the EC90 [2, 7] was 28 µM. For the same compound, the “SI (CC50/EC90), HBV Virion” value [2] was greater than 36.

With O=C1C[C@@H](c2ccc(O)cc2)Oc2c1c(O)cc(O[C@@H]1O[C@H](CO)[C@@H](O)[C@H](O)[C@H]1O)c2[C@H]1C(=O)c2c(O)cc(O)cc2O[C@@H]1c1ccc(O)cc1 [GB-1a glucoside (15), GB-1a 7″-O-b-glucoside] the “activity against HIV-1 RT (in words)” value [1] was “no activity”, the “Anti-HIV-1 RT % Inhibition at 200 μg/ml” value [1] was 1.46% and the “Anti-HIV-1 RT IC50” value [1, 8] was “Inactive”.

For O=C1CC(c2ccc(O)cc2)Oc2cc(O)cc(O)c21 (stereo not drawn) [Naringenin, 4′,5,7-trihydroxyflavanone, reference compound], the “activity against HIV-1 RT (in words)” value [1] was “slight inhibition” and the inhibition at 200 µg/mL [1] was 34.9%.

For O=C1C[C@@H](c2ccc(O)c(O)c2)Oc2c1c(O)cc(O)c2[C@H]1C(=O)c2c(O)cc(O)cc2O[C@@H]1c1ccc(O)cc1 [GB-2a(16), GB-2a], the “HIV-1 RT IC50 (50% inhibition dose)” value [1] was 94.6 µg/mL, the “Anti-HIV-1 RT % Inhibition at 200 μg/ml” value [1] was 96% and the IC50 ([1]; values in parentheses or in words, read-out: Anti-HIV-1 RT IC50) was 170 µM.

COc1cccc2c1C(=O)c1c(O)c3c(c(O)c1C2=O)C[C@@](O)(C(C)=O)C[C@@H]3O[C@H]1C[C@H](N)[C@H](O)[C@H](C)O1 [daunomycin, reference compound] gave an IC50 [1, 9] of 237 µM.

With CC(=O)Oc1ccc(-c2cc(=O)c3c(OC(C)=O)c(-c4cc(-c5cc(=O)c6c(OC(C)=O)cc(OC(C)=O)cc6o5)ccc4OC(C)=O)c(OC(C)=O)cc3o2)cc1 [Robustaflavone Hexaacetate, robustaflavone hexaacetate] the “fold less active/potent than robustaflavone against HBV” value [2] was “approximately three-fold”, the EC50 [2, 6] was 0.73 µM and the EC90 [2, 7] was 2.8 µM. For the same compound, the “SI (CC50/EC90), HBV Virion” value [2] was greater than 360, the “SI (CC50/EC90), second value in parentheses” value ([3]; Table 2, value in parentheses, not explained) was 163 and the EC50 ([3]; Table 2, value in parentheses, not explained, read-out: EC50, second value in parentheses) was 3.9 µM. For the same compound, the EC90 ([3]; Table 2, value in parentheses, not explained, read-out: EC90, second value in parentheses) was 11 µM.

Nc1nc2c(ncn2COC(CO)CO)c(=O)[nH]1 [GVC, reference compound] was tested, and the “HCMV CPE Inhibition EC50” value [4] was 0.4 µg/mL.

With O=c1cc(-c2ccc(O)cc2)oc2cc(O)cc(O)c12 [Apigeriin, 4′,5,7-trihydroxyflavone, reference compound] the “activity against HIV-1 RT (in words)” value [1] was “moderate activity”, the IC50 [1, 10] was 443 µM and the inhibition at 200 µg/mL [1] was 72%.

COc1ccc(C2CC(=O)c3c(OC)cc(OC)c(C4C(=O)c5c(OC)cc(OC)cc5OC4c4ccc(OC)cc4)c3O2)cc1 (stereo not drawn) [GB-1a Me6(14), GB-1a hexamethyl ether] was tested, and the “activity against HIV-1 RT (in words)” value [1] was “inactive” and the “Anti-HIV-1 RT IC50” value [1, 8] was “Inactive”.

With Nc1ccn([C@H]2CC[C@@H](CO)O2)c(=O)n1 [2′,3′-ddC, 2′,3′-dideoxycytosine, reference compound] the EC50 [2, 6] was 1.8 µM, the EC50 ([2]; read-out: EC50, concentration necessary to decrease HBV DNA levels by 50%, 2.2.15 cells, combinations: with respect to RF) was 1.4 µM and the EC90 [2, 7] was 94 µM. For the same compound, the “SI (CC50/EC90), HBV Virion” value [2] was 28, the EC50 ([3]; 2.2.15 cells, read-out: EC50, HBV replication intermediates (RI) (intracellular DNA)) was 2.4 µM and the “Viral Antigens: HBeAg” value [5] was 88 ± 10 % of Day 0 Control. The “Viral Antigens: HBsAg” value [5] was 90 ± 12 % of Day 0 Control, the “Viral Antigens: HbcAG” value [5] was 91 ± 9 % of Day 0 Control and the “Viral DNA: Extracellular DNA” value [5] was 1 ± 1 % of Day 0 Control. For the same compound, the “Viral DNA: Intracellular DNA” value [5] was 6 ± 1 % of Day 0 Control, the “Viral mRNA: 3.6 kb and 2.1 kb mRNA (first column)” value [5] was 94 ± 7 % of Day 0 Control and the “Viral mRNA: 3.6 kb and 2.1 kb mRNA (second column)” value [5] was 87 ± 9 % of Day 0 Control.

With O=C1c2c(O)cc(O)cc2O[C@@H](c2ccc(O)cc2)[C@@H]1c1c(O)cc(O)c2c(=O)cc(-c3ccc(O)cc3)oc12 [Volkensiflavone (5), volkensiflavone] the “activity against HIV-1 RT (in words)” value [1] was “weakly active” and the inhibition at 200 µg/mL [1] was 45.3%.

For O=c1cc(-c2ccc(OS(=O)(=O)O)c(-c3c(OS(=O)(=O)O)cc4oc(-c5ccc(OS(=O)(=O)O)cc5)cc(=O)c4c3O)c2)oc2cc(OS(=O)(=O)O)cc(O)c12 [Robustaflavone tetrasulfate (17), robustaflavone-7,4′,7″,4′″-tetrasulfate K-salt], the “anti-HBV activity (in words)” value ([2]; 2.2.15 cells) was “extremely effective”, the EC50 ([2]; Hepatitis B virus, 216 h, read-out: EC50 (50% effective dose), HBV Virion, 2.2.15 cells, extracellular (virion) HBV DNA, 9 days treatment) was 0.4 µM and the EC90 ([2]; Hepatitis B virus, 216 h, read-out: EC90 (90% effective dose), HBV Virion, 2.2.15 cells, extracellular (virion) HBV DNA, 9 days treatment) was 3.6 µM. The “SI (CC50/EC90), HBV Virion” value [2] was 110, the IC50 [1, 10] was 144 µM and the IC50 [1, 9] was 168 µM. The inhibition at 200 µg/mL [1] was 95.5%.
